Results taken from patent publication US20110144125A1, “Anti-Arrhythmia Agents, Methods of Their Use, Methods of Their Identification and Kits Therefore” (THE UAB RESEARCH FOUNDATION, priority 2008, published 2011).
Structures can show the parent of a compound that is named as a salt.

Key:
[1] = test system: rat left atrial appendage; experiment: 2-APB-induced spontaneous mechanical activity (SMA/SMEs) in isolated superfused rat left atria / left atrial appendage; settings: for prevention of electromechanical instability in model of abnormal automaticity (FIG. 6): polyphenol then 2-APB; for concentration at which SMA is reduced (reversal): recorded ˜10 min after addition; for time to reversal of SMA after exposure: 20 μM 2-APB-induced SMA; for effect on sporadic ectopic activity (SMA): 2-APB-treated appendages, known anti-arrhythmic agents, lidocaine data not shown
Protocol: Left atria were isolated from male Sprague-Dawley rats (325 to 400 g) under IP pentobarbital anesthesia (0.1 g/kg). Isolated left atria were superfused at 30° C. in Krebs-Henseleit (KH) buffer of the following mM composition: NaCl, 118; NaHCO3, 27; KCl, 4.8; MgSO4, 1.2; KH2PO4, 1.0; CaCl2, 1.8; and glucose, 11.1. Nearly isometric left atrial forces of contraction were measured as described.
Isolated superfused left atria were paced at 3 Hz. 2-APB was added to atrial superfusates from 0.015 or 0.15M DMSO stock solutions to achieve concentrations of 0, 2, 7.5, 15, or 22 μM (n=5 to 10 atria per concentration). Changes in atrial mechanical force were recorded during a subsequent 15 min superfusion.
Two groups of 5 to 6, 3 Hz paced atria were superfused in KH and exposed to 0 or 15 μM 2-APB for 10 min. The pacing stimulus was interrupted for 5 min and the number of spontaneous mechanical events (SMEs), defined as increases in mechanical force occurring in the absence of pacing, were measured as was the postrest potentiation response (PRP).
To determine whether diastolic interval affected the interaction between 2-APB and left atria, atrial pacing was decreased to 0.1 Hz, and 0, 7.5, or 22 μM 2-APB was added to the superfusate (n=6-8 per group). Superfusions continued for 15 min, and changes in atrial mechanical function were observed.
To establish whether SMA was reversible, atria (n=7) were paced at 0.1 Hz, exposed to 15 μM 2-APB for 10 min, and washed with KH. The effect of removing 2-APB on atrial mechanical function was recorded.
To test whether an anion transport inhibitor affected SMA, atria (n=7) were paced at 0.1 Hz in KH and exposed to 15 μM 2-APB. Following the appearance of SMA, they were titrated with 100 to 400 μM DIDS for 3 to 5 min at each concentration. Whether SMA occurred at the end of each titration period was recorded.
(§1) Left atria (n=10 per group) were paced at 0.1 Hz and treated with (i) 20 μM 2-APB for 10 min, (ii) with 30 nM isoproterenol for 5 min followed by 20 μM 2-APB for 10 min, and (iii) with 3 μM forskolin for 5 min followed by 20 μM 2-APB for 10 min.
The appendages then were titrated with increasing concentrations of 2-APB, and SMA was measured and recorded.
(§2) To determine the anti-arrhythmic activity of gossypol, isolated rat left atrial appendage and right ventricular muscle strips were used as model systems, as described above. Heart muscle was exposed to 20 μM 2-APB for 10 min to induce SMA, and rates of SMA were recorded as a percentage of initial SMA. The muscles then were titrated with up to 5 increasing concentrations of gossypol. Rates of SMA were recorded ˜10 min after the addition of concentration of the polyphenol.
To determine whether EGCG can prevent arrhythmia, rat left atrial appendages (n=9) were exposed to 20 μM 2-APB and rates of SMA were recorded. Groups of muscles (n=6 per) were pre-treated with 30 μM EGCG for 10 min following which they were exposed to 2-APB. Rates of SMA were recorded 10 min later.
as §2, with “whether EGCG is effective to reverse arrhythmia,” for “the anti-arrhythmic activity of gossypol,”, “Rat left atrial appendages were” for “Heart muscle was”, “left atrial appendages” for “muscles”, “the following polyphenols: EGCG, gossypol, resveratrol, and quercetin.” for “gossypol.”
To determine whether EGC can prevent arrhythmia, left atrial appendages (n=9) were exposed to 20 μM 2-APB and rates of SMA were recorded. Groups of appendages (n=6 per) were pre-treated with 30 μM EGC for 10 min following which they were exposed to 2-APB.

rat left atria = experiment: Spontaneous tachycardic activity (STA) in isolated rat left atria exposed to 2-APB under increased calcium load
Protocol: Male Sprague-Dawley rats (325-400 g) were anesthetized with intra-peritoneal pentobarbital (0.1 g/kg). Their right and left atria were isolated, superfused at 30° C. in Krebs-Henseleit buffer, and nearly isometric forces of contraction were measured from these muscles (Wolkowicz et al., 2002). 2-APB was prepared as a 150 mM dimethyl sulfoxide stock.
Left atria (n=8 per group) were paced at 3 Hz and (i) titrated with 0 to 30 nM isoproterenol (Ahlquist, 1970) or (ii) exposed to 3 μM forskolin (Laurenza et al., 1980). Left atrial force and frequency of contraction, the time to peak tension and relaxation times were recorded after a 3-5 min exposure to forskolin or to any concentration of isoproterenol. The 3 Hz pacing stimulus was interrupted at the end of these protocols to measure SMEs.
as §1
Left atrial contraction and relaxation times were recorded at these five times, the pacing stimulus was stopped and rates of SMA were recorded. To determine whether initial pacing rate affects left atrial response to 2-APB and isoproterenol, left atria (n=5-7 per group) were paced at 3 Hz and (i) remained untreated for 15 min, (ii) were treated with 20 μM 2-APB alone for 10 min, or (ii) were treated with 30 nM isoproterenol for 5 min followed by 20 μM 2-APB for 10 min. Atrial mechanical function was measured at these four times; the pacing stimulus then was stopped and rates of SMA were recorded.
Left atria (n=6 per group) were paced at 3 Hz, titrated with 0 to 300 nM (−)BayK 8644 ([…]-1,4-Dihydro-2,6-dimethyl-5-nitro-4-[2-(trifluormethyl)phenyl]-3-pyridinecarboxylic acid methyl ester; Franckowiak et al. 1985) or FPL-64176 ((2,5-Dimethyl-4-[2-(phenylmethyl)benzoyl]-111-pyrrole-3-carboxylic acid methyl ester; Zheng et al., 1991) and their mechanical function and rates of SMA were recorded after a 5 min exposure to any concentration of slow calcium channel activator.
Left atria (n=8 per group) were paced at 0.1 Hz, exposed to 300 nM BayK 8644 or FPL-64176 for 5 min followed by 20 μM 2-APB for 10 min. Atrial mechanical function was recorded at this time; the pacing stimulus then was stopped and rates of SMA were recorded.
To test whether ryanodine receptor calcium leak produces SMA, left atria (n=6 per group) were paced at 0.1 Hz, treated with 0 or 300 nM BayK 8644 for 5 min, and then exposed to 600 nM ryanodine (Sutko et al., 1997). Atrial mechanical function and rates of SMA were recorded 20 min after exposure to ryanodine.
Rates of SMA were measured 5 min later.
Left atria (n=7) were paced at 3 Hz, treated with 120 μM ouabain (Illanes and Marshall, 1964), and any change in mechanical function was recorded at a new steady state, ˜10 min later. These atria were exposed to 20 μM 2-APB and their mechanical function and rates of SMA were recorded 10 min later.
3 Hz-paced left atria (n=9 per group) were superfused (i) in Krebs-Henseleit alone or (ii) they were treated with 20 μM 2-APB for 10 min, (iii) with 300 nM BayK 8644 for 10 min and with 20 μM 2-APB for 10 min, or (iv) they were treated with 300 nM BayK 8644 and 20 μM 2-APB for 10 min, then with 70 μM zatebradine (3-[3-[[2-(3,4-Dimethoxyphenyl)ethyl]methylamino] propyl]-1,3,4,5-tetrahydro-7,8,-dimethoxy-2H-3-benzazepin-2-one hydrochloride) for 10 min (Baruscotti et al., 2005). Pacing was interrupted at these times and rates of SMA were recorded.

[2] = pre-treated with 30 μM for 10 min, then 20 μM 2-APB for 10 min
[3] = 20 μM 2-APB for 10 min, then titration

2-methoxy antimycin A [2MAA]
SMEs in 2MAA-treated appendages ([1]; pre-treated with 80 μM 2MAA, 15 μM 2-APB): none

Oc1cc(O)c2c(c1)O[C@@H](c1cc(O)c(O)c(O)c1)[C@@H](O)C2 [EGC, (−)-cis-2-(3,4,5-trihydroxyphenyl)-3,4-dihydro-1(2H)-benzopyran-3,5,7-triol]
prevention of electromechanical instability in model of abnormal automaticity (FIG. 6) [1]: prevent the electromechanical instability | SMEs after pre-treatment (prevention of SMA) [1, 2]: no SMEs

O=C(O[C@H]1Cc2c(O)cc(O)cc2O[C@H]1c1cc(O)c(O)c(O)c1)c1cc(O)c(O)c(O)c1 [EGCG, (−)-cis-2-(3,4,5-Trihydroxyphenyl)-3,4-dihydro-1(2H)-benzopyran-3,5,7-triol 3-gallate]
concentration at which SMA is reduced (reversal) [1, 3]: ≥ 20 µM | reversal of SMA ([1]; 20 μM 2-APB, unpaced, 40 μM EGCG added to the muscle bath): SMA ceased | time to reversal of SMA after exposure [1]: ≤ 10 min | prevention of electromechanical instability in model of abnormal automaticity (FIG. 6) [1]: prevent the electromechanical instability | SMEs after pre-treatment (prevention of SMA) [1, 2]: no SMEs

CCOC(=O)C1=C(N)Oc2ccc(Br)cc2C1C(C#N)C(=O)OCC (stereo not shown) [HA14-1, ethyl 2-amino-6-bromo-4-(1-cyano-2-ethoxy-2-oxoethyl)-4H-chromene-3-carboxylate]
effect on SMA when added after 2-APB (reversal) ([1]; HA14-1 added 10 min after exposure to 2-APB): no effect on SMA | SMEs after pre-treatment (prevention of SMA) ([1]; pre-treated with 30 μM HA14-1, 2-APB 15 μM and above, vs untreated appendages): significantly fewer SMEs

COc1ccc(CCCOC(Cn2ccnc2)c2ccc(OC)cc2)cc1 (stereo not shown) [SKF-96365, 1-[2-(4-Methoxyphenyl)-2-[3-(4-methoxyphenyl)propoxy]ethyl-1H-imidazole hydrochloride]
prevention and reversal of SMA ([1]; data not shown): prevents and reverse SMA | reversal of STA (rat left atria; 0.1 Hz-paced, BayK 8644 and 2-APB, ˜50 μM SKF-96365): STA was suppressed | IC50 (rat left atria; Rattus norvegicus, BayK 8644 and 2-APB, read-out: IC50 for reversal of STA): ~15 µM | prevention of STA (rat left atria; data not shown): prevents STA

O=C(NCC1CCCCN1)c1cc(OCC(F)(F)F)ccc1OCC(F)(F)F (stereo not shown) [flecainide]
effect on sporadic ectopic activity (SMA) [1]: suppress this arrhythmic activity | effect on sporadic ectopic activity (SMA) ([1]; listed as Flecainide): suppresses SMA

C=C[C@@]1(C)CC(=O)[C@]2(O)[C@@]3(C)[C@@H](O)CCC(C)(C)[C@@H]3[C@H](O)[C@H](OC(C)=O)[C@@]2(C)O1 [forskolin]
rate of STA (SMA frequency) in presence of 2-APB and calcium loading agent (rat left atria; 20 μM 2-APB plus 30 nM isoproterenol, 3 μM forskolin, 300 nM BayK 8644, 300 nM FPL-64176 or 120 μM ouabain, absence of pacing, 30° C.): 231±5 contractions/min

Cc1cc2c(C(C)C)c(O)c(O)c(C=O)c2c(O)c1-c1c(C)cc2c(C(C)C)c(O)c(O)c(C=O)c2c1O [gossypol, 7-(8-formyl-1,6,7-trihydroxy-3-methyl-5-propan-2-ylnaphthalen-2-yl)-2,3,8-trihydroxy-6-methyl-4-propan-2-ylnaphthalene-1-carbaldehyde]
concentration at which SMA dropped to zero (reversal) [1, 3]: ≥ 20 µM | concentration at which SMA is reduced (reversal) [1, 3]: ≥ 10 µM | time to reversal of SMA after exposure [1]: ≤ 10 min | prevention of electromechanical instability in model of abnormal automaticity (FIG. 6) [1]: prevent the electromechanical instability

CCN(CC)CC(=O)Nc1c(C)cccc1C [lidocaine]
effect on sporadic ectopic activity (SMA) [1]: suppress this arrhythmic activity

O=c1c(O)c(-c2ccc(O)c(O)c2)oc2cc(O)cc(O)c12 [quercetin, 2-(3,4-dihydroxyphenyl)-3,5,7-trihydroxy-4H-chromen-4-one]
prevention of electromechanical instability in model of abnormal automaticity (FIG. 6) [1]: prevent the electromechanical instability | SMEs after pre-treatment (prevention of SMA) [1, 2]: no SMEs

COc1ccccc1OCC(O)CN1CCN(CC(=O)Nc2c(C)cccc2C)CC1 (stereo not shown) [ranolazine]
effect on sporadic ectopic activity (SMA) [1]: prevent the sporadic ectopic activity | effect on tachycardic activity (STA) (rat left atria; high calcium loads, 2-APB and 300 nM (−)BayK 8644, 80 μM ranolazine): suppresses, but does not completely prevent

Oc1ccc(C=Cc2cc(O)cc(O)c2)cc1 [resveratrol, 5-[2-(4-hydroxyphenyl)ethenyl]benzene-1,3-diol]
prevention of electromechanical instability in model of abnormal automaticity (FIG. 6) [1]: prevent the electromechanical instability | SMEs after pre-treatment (prevention of SMA) [1, 2]: no SMEs
